Data taken from ChEMBL document CHEMBL1201862, “PubChem BioAssay data set” (2004).
Activity calls are given as the source filed them.

Assays:
[1] = HEp-2 cell cytotoxicity, dose response, cytotoxicity control for RSV inhibitor project, HTS (AID 2410); format: functional; details: human respiratory syncytial virus
[2] = test system: CHO-K1; experiment: (§1) Counterscreen for antagonists of the orexin 1 receptor (OX1R; HCRTR1): Homogeneous time resolved fluorescence (HTRF)-based cell-based dose response assay to identify antagonists of the parental CHO-K1 cell line. [Related pubchem assays (depositor defined):AID434989, AID435008, AID463079, AID485270, AID492963, AID492964, AID492965, AID493232, AID504699, AID504701]; format: functional; details: Cricetulus griseus
[3] = as §1, with “Fluorescence-based” for “Homogeneous time resolved fluorescence (HTRF)-based”, “cell-based high throughput” for “cell-based”, “CHO” for “CHO-K1”; format: functional
[4] = target: T1, Orexin/Hypocretin receptor type 1 (Homo sapiens, UniProt O43613); experiment: Homogeneous Time Resolved Fluorescence (HTRF)-based cell-based high throughput dose response assay for antagonists of the orexin 1 receptor (OX1R; HCRTR1). [Related pubchem assays (depositor defined):AID434989, AID435008, AID463079, AID485270, AID492963, AID492964, AID492965, AID493232, AID504717, AID504718]; format: functional
[5] = target: T1, Orexin/Hypocretin receptor type 1; experiment: Fluorescence-based cell-based high throughput dose response assay for antagonists of the orexin 1 receptor (OX1R; HCRTR1). [Related pubchem assays (depositor defined):AID434989, AID435008, AID463079, AID485270, AID492963, AID492964, AID492965, AID493232, AID504717, AID504718]; format: functional
[6] = test system: H9c2; experiment: cells; format: functional, cell-based; details: Rattus norvegicus, H9c2, Myocardium;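 note: confirmatory concentration-response retest of ultra-high-throughput screening hits for modulation of myocardial damage; cell death induced by hydrogen peroxide oxidative stress; compound pretreatment for 60 min then peroxide exposure for 2 h; potency is for protecting the cells against peroxide damage rather than for killing them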
[7] = target: T2, Orexin receptor type 2 (Homo sapiens, UniProt O43614); experiment: Counterscreen assay for antagonists of the orexin 1 receptor (OX1R; HCRTR1): Fluorescence-based cell-based dose response assay for antagonists of the orexin 2 receptor (OX2R; HCRTR2), run by assay provider.; format: functional
[8] = target: T2, Orexin receptor type 2; experiment: Counterscreen assay for antagonists of the orexin 1 receptor (OX1R; HCRTR1): Homogeneous Time Resolved Fluorescence (HTRF)-based cell-based dose response assay for antagonists of the orexin 2 receptor (OX2R; HCRTR2), run by assay provider.; format: functional
[9] = SAR analysis of small molecule activators of Apaf-1 using a LZ-Caspase-9/Caspase-3 Fluorescent Selectivity assay - Set 2.; format: functional; details: read-out: EC50_Mean
[10] = target: T3, Apoptotic protease-activating factor 1 (Homo sapiens, UniProt O14727); experiment: SAR analysis of small molecule Activators of Apaf-1 in a Fluorescent assay - set 2.; format: functional; details: read-out: EC50_Mean
T3 sequence (O14727 whole entry): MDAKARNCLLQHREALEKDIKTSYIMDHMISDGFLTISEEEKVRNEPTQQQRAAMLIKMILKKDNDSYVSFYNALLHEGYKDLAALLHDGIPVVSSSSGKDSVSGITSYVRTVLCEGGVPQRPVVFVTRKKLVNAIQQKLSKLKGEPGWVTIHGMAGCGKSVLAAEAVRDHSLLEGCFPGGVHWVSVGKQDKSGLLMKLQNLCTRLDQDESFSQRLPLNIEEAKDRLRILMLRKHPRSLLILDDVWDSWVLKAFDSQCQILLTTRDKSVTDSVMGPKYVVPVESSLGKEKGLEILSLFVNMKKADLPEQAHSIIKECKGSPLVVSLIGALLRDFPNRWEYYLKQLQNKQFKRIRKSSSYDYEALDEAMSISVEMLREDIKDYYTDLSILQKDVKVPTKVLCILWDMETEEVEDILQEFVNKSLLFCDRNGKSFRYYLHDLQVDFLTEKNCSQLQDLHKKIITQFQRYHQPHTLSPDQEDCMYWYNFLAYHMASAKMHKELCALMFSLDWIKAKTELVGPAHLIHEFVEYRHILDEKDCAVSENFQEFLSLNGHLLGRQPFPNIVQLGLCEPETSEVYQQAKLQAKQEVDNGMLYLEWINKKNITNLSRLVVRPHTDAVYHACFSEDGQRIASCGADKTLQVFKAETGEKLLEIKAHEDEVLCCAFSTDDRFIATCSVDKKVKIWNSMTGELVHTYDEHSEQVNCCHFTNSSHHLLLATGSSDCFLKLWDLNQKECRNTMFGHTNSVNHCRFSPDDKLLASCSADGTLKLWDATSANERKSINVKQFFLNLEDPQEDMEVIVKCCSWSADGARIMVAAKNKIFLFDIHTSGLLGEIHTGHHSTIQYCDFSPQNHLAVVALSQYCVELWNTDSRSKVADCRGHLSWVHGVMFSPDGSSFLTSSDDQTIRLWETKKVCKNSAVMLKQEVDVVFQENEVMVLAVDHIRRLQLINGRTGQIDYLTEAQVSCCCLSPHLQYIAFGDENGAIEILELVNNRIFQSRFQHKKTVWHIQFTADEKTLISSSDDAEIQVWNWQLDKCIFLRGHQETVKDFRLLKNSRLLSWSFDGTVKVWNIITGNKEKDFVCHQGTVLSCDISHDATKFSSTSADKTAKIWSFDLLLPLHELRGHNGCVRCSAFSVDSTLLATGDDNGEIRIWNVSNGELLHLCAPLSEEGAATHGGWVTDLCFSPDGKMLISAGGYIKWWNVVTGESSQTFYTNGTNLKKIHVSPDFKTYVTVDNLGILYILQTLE

[11] = target: Cyclin-dependent kinase 8 (Homo sapiens, UniProt P49336); experiment: Navigating the Kinome. Panel member name: CDK8; format: functional
[12] = target: Cyclin-dependent kinase 9 (Homo sapiens, UniProt P50750); format: functional;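 note: value from the CDK9 entry of a kinome-spanning kinase panel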
[13] = target: Cytochrome P450 2C9 (Homo sapiens, UniProt P11712)
[14] = test system: Candida albicans; experiment: growth inhibition of resistant C. albicans, dose response, CaCi-8, fluconazole, Alamar Blue, dry powder (AID 488807); format: functional, organism-based
[15] = test system: Candida albicans; experiment: single-agent growth inhibition of C. albicans, dose response, counter-screen for antifungal drug resistance project, C. albicans CaCi-2, dry powder (AID 488802); format: functional, organism-based
[16] = test system: NIH3T3; experiment: cytotoxicity in NIH-3T3 fibroblasts, dose response, cytotoxicity control for antifungal drug resistance project, cell-based, Alamar Blue, fluconazole, dry powder (AID 488809); format: functional; details: Mus musculus
[17] = Vero cell cytotoxicity, dose response, cytotoxicity control for M. tuberculosis growth inhibitor project, Vero cells, purified and synthesized compounds, set 5 (AID 504909); format: functional; details: Mycobacterium tuberculosis
[18] = A Cell Based Secondary Assay to Explore Cytotoxicity in THP-1 Cells of Compounds that Modulate Mycobacterium tuberculosis in Media Containing Glycerol versus Media without Glycerol (2).; format: functional
[19] = Vero cell cytotoxicity, cytotoxicity control for M. tuberculosis inhibitor project, purified and synthesized samples, set 3 (AID 504684); format: functional
[20] = THP-1 cell cytotoxicity, cytotoxicity control, set 4 (AID 504911); format: functional; details: Mycobacterium tuberculosis
[21] = THP-1 cell cytotoxicity, dose response, cytotoxicity control, set 3 (AID 504852); format: functional; details: Mycobacterium tuberculosis
[22] = Vero cell cytotoxicity, dose response, cytotoxicity control for M. tuberculosis growth inhibitor project, Vero cells, purified and synthesized compounds, set 4 (AID 504854); format: functional; details: Mycobacterium tuberculosis
[23] = target: Glycogen synthase kinase-3 alpha (Homo sapiens, UniProt P49840); experiment: Inhibition of Human GSK-3 alpha Activity Measured in Biochemical System Using Microfluidics - 2063-06_Inhibitor_Dose_DryPowder_Activity_Set2. [Related pubchem assays (depositor defined):AID2709]
[24] = target: Glycogen synthase kinase-3 beta (Homo sapiens, UniProt P49841); experiment: Inhibition of Human GSK-3 beta Activity Measured in Biochemical System Using Microfluidics - 2063-05_Inhibitor_Dose_DryPowder_Activity_Set2. [Related pubchem assays (depositor defined):AID2709]
[25] = target: Cyclin-dependent kinase 5/CDK5 activator 1 (Homo sapiens, UniProt Q00535); experiment: CDK5-p25 kinase inhibitors, specificity check, dose response, selectivity assay for GSK-3 alpha inhibitor project, biochemical, microfluidic mobility shift, dry powder (AID 588430)
[26] = target: T4, Neuropeptides B/W receptor type 1 (Homo sapiens, UniProt P48145); experiment: GPR7 antagonist potency, late-stage follow-up, cell-based, fluorescence, dose response, set 5 (AID 588566); format: functional
T4 sequence (P48145 whole entry): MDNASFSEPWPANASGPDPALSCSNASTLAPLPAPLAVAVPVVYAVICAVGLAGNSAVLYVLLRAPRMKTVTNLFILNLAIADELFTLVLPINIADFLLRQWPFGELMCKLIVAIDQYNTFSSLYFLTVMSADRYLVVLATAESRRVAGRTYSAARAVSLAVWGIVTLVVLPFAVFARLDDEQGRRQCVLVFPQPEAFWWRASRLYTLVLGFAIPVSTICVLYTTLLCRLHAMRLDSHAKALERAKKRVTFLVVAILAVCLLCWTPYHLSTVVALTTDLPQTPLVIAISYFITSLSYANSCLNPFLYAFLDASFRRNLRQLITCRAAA

[27] = target: Melanin-concentrating hormone receptor 1 (Homo sapiens, UniProt Q99705); experiment: Late-stage fluorescence-based counterscreen for antagonists of the G-protein coupled receptor 7 (GPR7): cell-based dose response assay to identify antagonists of the melanin-concentrating hormone receptor 1 (MCHR1) Set 5.; format: functional
Chain of Melanin-concentrating hormone receptor 1 (Q99705 whole entry): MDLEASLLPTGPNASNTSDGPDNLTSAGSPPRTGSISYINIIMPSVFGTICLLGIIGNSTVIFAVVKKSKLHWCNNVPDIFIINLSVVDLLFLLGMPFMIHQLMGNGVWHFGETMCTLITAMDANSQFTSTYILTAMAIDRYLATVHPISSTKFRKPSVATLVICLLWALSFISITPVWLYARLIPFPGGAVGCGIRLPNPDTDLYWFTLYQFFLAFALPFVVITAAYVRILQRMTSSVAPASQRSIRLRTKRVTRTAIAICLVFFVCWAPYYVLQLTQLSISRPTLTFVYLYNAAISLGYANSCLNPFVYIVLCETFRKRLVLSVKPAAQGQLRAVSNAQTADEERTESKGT

T1 sequence (O43613 whole entry): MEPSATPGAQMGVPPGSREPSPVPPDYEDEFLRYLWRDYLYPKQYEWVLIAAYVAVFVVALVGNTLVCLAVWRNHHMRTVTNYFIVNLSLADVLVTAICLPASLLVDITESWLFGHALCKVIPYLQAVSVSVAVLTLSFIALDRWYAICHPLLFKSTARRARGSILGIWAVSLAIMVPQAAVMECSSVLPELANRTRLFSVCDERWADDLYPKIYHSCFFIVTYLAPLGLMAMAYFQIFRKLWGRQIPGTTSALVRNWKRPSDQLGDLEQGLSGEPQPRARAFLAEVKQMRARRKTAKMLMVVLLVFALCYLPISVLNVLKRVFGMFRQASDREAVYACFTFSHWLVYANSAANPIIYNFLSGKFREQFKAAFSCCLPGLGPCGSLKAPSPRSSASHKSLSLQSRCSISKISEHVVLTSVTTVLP
T2 sequence (O43614 whole entry): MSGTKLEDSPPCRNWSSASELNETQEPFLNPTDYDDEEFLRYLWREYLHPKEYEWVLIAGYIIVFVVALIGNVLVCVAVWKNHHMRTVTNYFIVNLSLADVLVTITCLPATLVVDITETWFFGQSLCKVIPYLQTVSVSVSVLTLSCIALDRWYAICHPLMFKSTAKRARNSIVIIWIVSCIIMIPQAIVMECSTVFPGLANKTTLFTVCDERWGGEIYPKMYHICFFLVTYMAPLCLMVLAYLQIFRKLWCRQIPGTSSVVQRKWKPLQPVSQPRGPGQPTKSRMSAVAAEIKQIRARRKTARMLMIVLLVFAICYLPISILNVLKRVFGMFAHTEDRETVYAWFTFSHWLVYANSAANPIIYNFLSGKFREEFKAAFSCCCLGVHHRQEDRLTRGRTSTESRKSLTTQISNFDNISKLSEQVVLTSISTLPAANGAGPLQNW
Chain of Glycogen synthase kinase-3 alpha (P49840 whole entry): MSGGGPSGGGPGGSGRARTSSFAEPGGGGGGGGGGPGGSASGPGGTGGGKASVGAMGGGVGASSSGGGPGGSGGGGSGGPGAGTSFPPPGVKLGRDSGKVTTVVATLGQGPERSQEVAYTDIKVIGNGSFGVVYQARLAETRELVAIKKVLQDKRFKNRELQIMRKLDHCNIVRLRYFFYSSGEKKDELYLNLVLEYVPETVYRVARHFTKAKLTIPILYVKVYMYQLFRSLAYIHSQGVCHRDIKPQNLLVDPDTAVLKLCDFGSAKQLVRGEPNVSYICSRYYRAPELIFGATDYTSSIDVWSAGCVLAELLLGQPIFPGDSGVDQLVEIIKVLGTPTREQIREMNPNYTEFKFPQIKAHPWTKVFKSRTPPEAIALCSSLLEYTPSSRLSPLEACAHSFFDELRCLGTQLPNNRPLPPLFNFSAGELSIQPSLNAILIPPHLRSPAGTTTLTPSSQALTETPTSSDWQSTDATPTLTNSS
Chain of Glycogen synthase kinase-3 beta (P49841 whole entry): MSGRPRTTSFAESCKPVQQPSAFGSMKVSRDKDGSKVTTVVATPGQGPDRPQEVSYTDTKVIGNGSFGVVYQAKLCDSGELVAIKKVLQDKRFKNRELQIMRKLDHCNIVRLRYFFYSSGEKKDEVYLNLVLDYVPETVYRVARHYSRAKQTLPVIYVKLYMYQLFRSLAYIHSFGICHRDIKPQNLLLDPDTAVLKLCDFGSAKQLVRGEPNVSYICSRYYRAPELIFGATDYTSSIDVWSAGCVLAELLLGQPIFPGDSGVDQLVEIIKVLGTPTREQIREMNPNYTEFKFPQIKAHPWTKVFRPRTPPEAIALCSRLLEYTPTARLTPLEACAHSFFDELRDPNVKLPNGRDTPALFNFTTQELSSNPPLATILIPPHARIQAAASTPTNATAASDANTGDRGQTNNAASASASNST
Chain of Cyclin-dependent kinase 5/CDK5 activator 1 (Q00535 whole entry): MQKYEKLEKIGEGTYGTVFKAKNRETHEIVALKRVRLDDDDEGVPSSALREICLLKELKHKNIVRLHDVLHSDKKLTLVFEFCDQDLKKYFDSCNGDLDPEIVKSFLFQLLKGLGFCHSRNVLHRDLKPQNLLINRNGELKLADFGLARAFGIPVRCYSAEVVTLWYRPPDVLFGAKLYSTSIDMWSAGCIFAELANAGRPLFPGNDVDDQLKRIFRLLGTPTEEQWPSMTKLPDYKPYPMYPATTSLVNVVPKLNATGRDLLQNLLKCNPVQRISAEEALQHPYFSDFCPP
Chain of Cyclin-dependent kinase 5/CDK5 activator 1 (Q15078 whole entry, further chain): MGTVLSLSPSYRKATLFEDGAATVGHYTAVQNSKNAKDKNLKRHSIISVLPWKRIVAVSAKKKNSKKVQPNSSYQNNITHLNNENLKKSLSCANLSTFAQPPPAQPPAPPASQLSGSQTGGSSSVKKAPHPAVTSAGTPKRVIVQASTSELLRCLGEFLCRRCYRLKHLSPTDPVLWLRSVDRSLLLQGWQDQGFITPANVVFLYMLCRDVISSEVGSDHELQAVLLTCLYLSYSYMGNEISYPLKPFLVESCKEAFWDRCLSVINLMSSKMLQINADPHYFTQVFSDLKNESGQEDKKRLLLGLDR
Chain of Cytochrome P450 2C9 (P11712 whole entry): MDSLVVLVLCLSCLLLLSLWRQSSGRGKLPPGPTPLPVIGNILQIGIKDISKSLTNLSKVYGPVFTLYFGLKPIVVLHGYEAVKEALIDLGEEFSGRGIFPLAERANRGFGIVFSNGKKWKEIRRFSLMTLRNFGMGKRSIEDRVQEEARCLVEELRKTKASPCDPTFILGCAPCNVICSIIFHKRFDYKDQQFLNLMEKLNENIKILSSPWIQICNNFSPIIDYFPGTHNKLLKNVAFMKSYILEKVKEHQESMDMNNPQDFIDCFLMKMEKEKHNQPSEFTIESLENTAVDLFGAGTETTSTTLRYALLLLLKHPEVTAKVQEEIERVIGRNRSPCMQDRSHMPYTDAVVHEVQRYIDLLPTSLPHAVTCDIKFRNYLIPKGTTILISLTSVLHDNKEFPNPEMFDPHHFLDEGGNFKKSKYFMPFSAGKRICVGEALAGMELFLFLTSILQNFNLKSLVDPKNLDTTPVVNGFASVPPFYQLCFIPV
Chain of Cyclin-dependent kinase 8 (P49336 whole entry): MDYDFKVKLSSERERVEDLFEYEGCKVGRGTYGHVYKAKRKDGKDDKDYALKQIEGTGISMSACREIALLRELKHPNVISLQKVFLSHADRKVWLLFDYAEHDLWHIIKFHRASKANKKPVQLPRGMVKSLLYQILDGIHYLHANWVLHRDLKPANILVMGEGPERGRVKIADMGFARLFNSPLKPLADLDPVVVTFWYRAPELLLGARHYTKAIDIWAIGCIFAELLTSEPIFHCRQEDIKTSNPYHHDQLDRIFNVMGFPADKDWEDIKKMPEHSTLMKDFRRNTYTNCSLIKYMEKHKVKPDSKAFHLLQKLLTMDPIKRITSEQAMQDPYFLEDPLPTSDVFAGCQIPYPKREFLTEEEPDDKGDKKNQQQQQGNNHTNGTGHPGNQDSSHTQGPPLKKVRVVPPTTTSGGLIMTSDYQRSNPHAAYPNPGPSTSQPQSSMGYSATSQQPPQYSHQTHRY
Chain of Cyclin-dependent kinase 9 (P50750 whole entry): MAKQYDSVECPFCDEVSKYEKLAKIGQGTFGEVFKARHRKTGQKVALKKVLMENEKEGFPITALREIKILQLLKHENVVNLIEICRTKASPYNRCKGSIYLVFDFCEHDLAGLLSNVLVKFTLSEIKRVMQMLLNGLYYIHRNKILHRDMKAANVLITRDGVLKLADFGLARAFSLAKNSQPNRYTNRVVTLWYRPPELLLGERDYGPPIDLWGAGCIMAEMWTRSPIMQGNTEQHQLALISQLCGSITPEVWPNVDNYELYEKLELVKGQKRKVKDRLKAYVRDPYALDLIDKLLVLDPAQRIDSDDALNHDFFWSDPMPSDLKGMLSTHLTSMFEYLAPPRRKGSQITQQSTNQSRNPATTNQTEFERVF

SMILES: Cc1[nH]c2ccccc2c1C(=O)CSc1nc2ccccc2[nH]1
- CC50 [1]: > 50 µM (active)
- IC50 [2]: > 66.2 µM (inactive)
- IC50 [3]: > 49.8 µM (inactive)
- IC50 [4]: 3.42 µM (active)
- IC50 [5]: 12.5 µM (inactive)
- IC50 [6]: 32 µM (inactive)
- IC50 [7]: > 88.8 µM (inactive)
- IC50 [8]: > 50 µM (inactive)

SMILES: COc1cc(OC)c(C2=NOC(C(=O)O)C2)cc1Cl (configuration not stated)
- EC50 [9]: > 100 µM (inactive)
- EC50 [10]: > 100 µM (inactive)

SMILES: COc1ccc(-c2cc(=O)c3c(O)cc(O)cc3o2)cc1 [ACACETIN]
- Ki [11]: 0.631 µM (active)
- Ki [12]: 1.26 µM (active)
- AC50 [13]: 1.26 µM (inconclusive)

SMILES: Oc1c2nc3ccc(F)cc3c-2nc2n1CCS2
- AC50 [14]: 4.72 µM (active)
- AC50 [15]: 37.3 µM (active)
- AC50 [16]: 192 µM (active)

SMILES: CN(C(=O)CSc1nc2ccccc2c(=O)[nH]1)C1CCCCC1
- CC50 [17]: > 100 µM (active)
- CC50 [18]: > 100 µM (active)
- CC50 [19]: > 100 µM (active)
- CC50 [20]: > 97.4 µM (active)
- CC50 [21]: > 100 µM (active)
- CC50 [22]: > 100 µM (active)

SMILES: CCOc1ccccc1/C=N/NC(=O)c1nnn(-c2nonc2N)c1CN1CCC(C)CC1
- AC50 [23]: 0.0392 µM (active)
- AC50 [24]: < 0.016 µM (active)
- AC50 [25]: 65 µM (active)

SMILES: COc1ccc(Oc2c(C(=O)O)cnn(Cc3cccc4ccccc34)c2=O)cc1
- IC50 [26]: > 20 µM (inactive)
- IC50 [27]: > 20 µM (inactive)
